The values that follow are results of earlier work, collected in patent US8012958B2, “Methods for treating anxiety related disorders” (Hythlam, Inc., priority 2005, dated 2011).

Molecules are shown by their SMILES. Where two headings read alike, the source gives them in different places.

Assay in data set [1]: not given
This is another data set of the same source.

The conditions of data set [2]: overdose.
The conditions of data set [3]: IM 2 to 3 mg (0.02 to 0.05 mg/kg); patients 60 years or older without concomitant narcotics.
Data set [4] addresses T1, monoamine oxidase B (MAO-B) (Homo sapiens, UniProt P27338).
T1 sequence (P27338 1-520): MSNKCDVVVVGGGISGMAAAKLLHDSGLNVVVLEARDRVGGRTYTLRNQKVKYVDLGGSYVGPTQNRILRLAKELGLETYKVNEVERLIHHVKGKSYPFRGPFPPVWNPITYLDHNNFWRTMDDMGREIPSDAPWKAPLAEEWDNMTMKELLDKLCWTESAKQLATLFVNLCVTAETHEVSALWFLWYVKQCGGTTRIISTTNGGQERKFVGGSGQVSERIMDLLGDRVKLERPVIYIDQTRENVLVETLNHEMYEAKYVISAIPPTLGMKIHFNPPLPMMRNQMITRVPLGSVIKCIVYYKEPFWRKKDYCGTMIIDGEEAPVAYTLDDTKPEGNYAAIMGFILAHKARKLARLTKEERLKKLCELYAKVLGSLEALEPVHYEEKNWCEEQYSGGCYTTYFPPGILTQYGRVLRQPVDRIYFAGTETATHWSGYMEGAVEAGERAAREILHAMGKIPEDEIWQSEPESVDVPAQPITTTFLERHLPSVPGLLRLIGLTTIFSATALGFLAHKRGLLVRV
The conditions noted are these: single 300 mg dose.

Data set [5] addresses T2, monoamine oxidase A (MAO-A) (Homo sapiens, UniProt P21397).
T2 sequence (P21397 1-527): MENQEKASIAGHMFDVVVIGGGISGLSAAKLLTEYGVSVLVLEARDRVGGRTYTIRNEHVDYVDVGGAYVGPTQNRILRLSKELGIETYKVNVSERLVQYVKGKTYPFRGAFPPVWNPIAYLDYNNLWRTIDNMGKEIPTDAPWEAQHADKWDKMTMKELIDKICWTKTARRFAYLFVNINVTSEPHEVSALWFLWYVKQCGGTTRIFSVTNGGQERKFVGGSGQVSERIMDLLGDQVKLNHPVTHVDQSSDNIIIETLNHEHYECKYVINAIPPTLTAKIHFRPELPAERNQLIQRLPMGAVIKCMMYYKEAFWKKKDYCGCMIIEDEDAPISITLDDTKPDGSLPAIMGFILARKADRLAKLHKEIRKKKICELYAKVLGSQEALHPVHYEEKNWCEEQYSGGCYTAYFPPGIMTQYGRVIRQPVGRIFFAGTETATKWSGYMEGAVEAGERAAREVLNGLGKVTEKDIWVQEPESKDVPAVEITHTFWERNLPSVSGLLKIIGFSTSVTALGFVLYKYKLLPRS
The conditions noted are these: single 300 mg dose.

Data set [6] relates to GABAA receptor α4 subunit mRNA. The conditions noted are these: for amount of α4 subunit mRNA after withdrawal of the drug: withdrawal after long-term exposure.
For data set [7], the system named is GABAA receptors that contain α4 or α6 subunits.
Data set [8] relates to GABAA receptors. The settings on record: 3 μM flumazenil; ethanol withdrawn cells.

Turning to `CCC1(c2ccccc2)C(=O)NC(=O)NC1=O.CNC(C)CC1CCCCC1` [BARBEXACLONE], the “dose equivalent to 60 mg of phenobarbital” value (in vivo) is 100 mg of barbexaclone is equivalent to 60 mg of phenobarbital.

Take `CCCCC1(CC)C(=O)NC(=O)NC1=O` [BUTOBARBITAL]: under “butobarbital”, the “dose equivalent to 10 mg of Diazepam” value is reported as 50 mg of Butobarbital is equivalent to 10 mg of Diazepam; Acc. to.

As to `COc1ccc2c3c1O[C@H]1[C@@H](O)C=C[C@H]4[C@@H](C2)N(C)CC[C@@]341` [CODEINE], under “oral”, the “dose about equal to 30 mg (oral) of morphine” value was 200 mg (oral) of codeine is about equal to 30 mg (oral) of morphine.

As to `C[C@]12C=CC(=O)N[C@@H]1CC[C@@H]1[C@@H]2CC[C@]2(C)[C@@H](C(=O)Nc3cc(C(F)(F)F)ccc3C(F)(F)F)CC[C@@H]12` [DUTASTERIDE, (5α,17β)-N-{2,5 bis(trifluoromethyl)phenyl}-3-oxo-4-azaandrost-1-ene-17-carboxamide], the “adverse effects compared with therapeutic dose of 0.5 mg” value in data set [1] (clinical study, 5 mg daily for 6 months) is “subjects for 6 months with no additional adverse effects to those”.

In the case of `CCCC(C)(COC(N)=O)COC(N)=O` [MEPROBROMATE], the “ingested amount with which survival has been reported (as much as)” value in [2] was “much as 40 g”.

Turning to `Cc1ncc2n1-c1ccc(Cl)cc1C(c1ccccc1F)=NC2` [MIDAZOLAM], the “sedation during the preoperative period” value in data set [3] was “(0.02 to 0.05 mg/kg) of VERSED produced adequate sedation”.

For `O=C(NCCN1CCOCC1)c1ccc(Cl)cc1` [Moclobemide], in data set [4], the “inhibition of monoamine oxidase B (MAO-B)” value was “oxidase A (MAO-A) and 30% of monoamine oxidase B (MAO-B),”. The “inhibition of monoamine oxidase A (MAO-A)” value in data set [5] is recorded as “A single 300 mg dose of moclobemide inhibits 80% of monoamine”.

`CC1CN2CC(=O)Nc3ccc(Cl)cc3C2(c2ccccc2)O1` (stereo not shown) [OXAZOLAM]: where the note is “oxazolam”, the “dose equivalent to 10 mg of Diazepam” value is 20 mg is equivalent to 10 mg of Diazepam.

`CCN(C(C)=O)c1cccc(-c2ccnc3c(C#N)cnn23)c1` [ZALPELON]: in [6], the “amount of α4 subunit mRNA after withdrawal of the drug” value (“amount of α4 subunit mRNA” below) is “marked increase”.

Turning to `CN1C(=O)CN=C(c2ccccc2)c2cc(Cl)ccc21` [diazepam], the “effect on the ethanol withdrawal-induced increase in abundance of α4 subunit mRNA” value in data set [6] (exposure at the time of ethanol withdrawal) was “antagonizes the withdrawal-induced increase”. For the same molecule, in data set [6], the “amount of α4 subunit mRNA” value is on record as “marked increase”. In addition, the “affinity for or efficacy at GABAA receptors that contain α4 or α6 subunits” value in data set [7] was “no affinity for or efficacy”.

Take `CCOC(=O)c1ncn2c1CN(C)C(=O)c1cc(F)ccc1-2` [flumazenil, ethyl 8-fluoro-5,6-dihydro-5-methyl-6-oxo-4H-imidazo-[1,5-a][1,4]benzodiazepine-3-carboxylate]: in [1] (human, in vivo), the “adverse effect on the nervous system” value is “causing increased agitation and anxiety”. In [8], the “modulation of the GABA evoked Cl- current” value was “potentiates the GABA evoked Cl— current”.

On to `Cc1ccc(-c2nc3ccc(C)cn3c2CC(=O)N(C)C)cc1` [zolpidem], for which the “amount of α4 subunit mRNA” value in data set [6] is listed as “marked increase”.
